This is an account of results in US12643867B2, “Compositions and uses thereof” (University of Virginia Patent Foundation, priority 2017, dated 2026).

Common to all, as to assay: SILAC LC-MS ATP acyl phosphate probe competition, native kinases in HEK293T
Format in all cases: binding

In assay [1] the target is T1, KCC2G (Calcium/calmodulin-dependent protein kinase type II gamma chain) (Homo sapiens, UniProt Q13555).
T1 construct: measured against >50 native kinases quantified in HEK293T soluble proteomes; endogenous in cells; host or cells: HEK293T soluble proteome
T1 sequence (Q13555 whole entry): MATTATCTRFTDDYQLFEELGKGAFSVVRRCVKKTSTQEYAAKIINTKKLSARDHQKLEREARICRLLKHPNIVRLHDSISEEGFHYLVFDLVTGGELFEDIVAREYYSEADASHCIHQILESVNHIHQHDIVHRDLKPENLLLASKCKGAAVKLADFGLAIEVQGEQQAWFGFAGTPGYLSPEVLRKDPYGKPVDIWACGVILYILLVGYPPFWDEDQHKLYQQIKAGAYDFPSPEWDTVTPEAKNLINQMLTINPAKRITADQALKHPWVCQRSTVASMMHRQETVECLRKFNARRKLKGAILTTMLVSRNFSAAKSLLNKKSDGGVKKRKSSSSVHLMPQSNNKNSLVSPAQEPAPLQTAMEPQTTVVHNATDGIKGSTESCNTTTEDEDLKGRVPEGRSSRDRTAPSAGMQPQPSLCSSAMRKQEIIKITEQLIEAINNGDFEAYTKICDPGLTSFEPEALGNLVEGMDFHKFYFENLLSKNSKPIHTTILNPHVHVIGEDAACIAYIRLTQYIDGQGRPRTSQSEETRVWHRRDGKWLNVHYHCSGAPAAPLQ
To be noted: site Lys1; ATP 1 mM; Ketanserin, Ritanserin 100 μM; RF001 1 mM. A digest of the protocol:
(§1)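 Light and heavy SILAC HEK293T proteomes (2 mg/ml in kinase buffer) were pre-treated with DMSO or compound (50× stock in DMSO) for 30 min at 25° C, then mixed 1:1, reduced, alkylated and digested with trypsin/Lys-C. Desthiobiotin-labelled peptides were avidin-enriched and analysed by LC-MS/MS on an Orbitrap, top-10 data-dependent acquisition.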

For assay [2], the target named is T2, MP2K4 (Dual specificity mitogen-activated protein kinase kinase 4) (Homo sapiens, UniProt P45985).
T2 construct: Native kinases; endogenous in cells; host or cells: HEK293T soluble proteome
T2 sequence (P45985 1-399): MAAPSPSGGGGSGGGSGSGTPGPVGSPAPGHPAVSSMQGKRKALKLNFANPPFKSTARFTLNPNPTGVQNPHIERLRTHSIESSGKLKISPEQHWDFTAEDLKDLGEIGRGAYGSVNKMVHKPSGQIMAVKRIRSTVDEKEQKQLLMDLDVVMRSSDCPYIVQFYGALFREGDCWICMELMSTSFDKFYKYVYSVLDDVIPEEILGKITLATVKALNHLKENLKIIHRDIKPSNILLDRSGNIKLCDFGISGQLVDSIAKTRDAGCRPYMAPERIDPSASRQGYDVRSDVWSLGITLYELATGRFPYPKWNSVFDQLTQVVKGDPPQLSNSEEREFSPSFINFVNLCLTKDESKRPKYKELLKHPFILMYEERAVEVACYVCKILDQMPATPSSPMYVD
To be noted: site Lys2; ATP 1 mM; Ketanserin, Ritanserin 100 μM; RF001 1 mM. A digest of the protocol: as §1

The target in assay [3] is T3, M4K5 (Mitogen-activated protein kinase kinase kinase kinase 5) (Homo sapiens, UniProt Q9Y4K4).
T3 construct: Native kinases; endogenous in cells; host or cells: HEK293T soluble proteome
T3 sequence (Q9Y4K4 whole entry): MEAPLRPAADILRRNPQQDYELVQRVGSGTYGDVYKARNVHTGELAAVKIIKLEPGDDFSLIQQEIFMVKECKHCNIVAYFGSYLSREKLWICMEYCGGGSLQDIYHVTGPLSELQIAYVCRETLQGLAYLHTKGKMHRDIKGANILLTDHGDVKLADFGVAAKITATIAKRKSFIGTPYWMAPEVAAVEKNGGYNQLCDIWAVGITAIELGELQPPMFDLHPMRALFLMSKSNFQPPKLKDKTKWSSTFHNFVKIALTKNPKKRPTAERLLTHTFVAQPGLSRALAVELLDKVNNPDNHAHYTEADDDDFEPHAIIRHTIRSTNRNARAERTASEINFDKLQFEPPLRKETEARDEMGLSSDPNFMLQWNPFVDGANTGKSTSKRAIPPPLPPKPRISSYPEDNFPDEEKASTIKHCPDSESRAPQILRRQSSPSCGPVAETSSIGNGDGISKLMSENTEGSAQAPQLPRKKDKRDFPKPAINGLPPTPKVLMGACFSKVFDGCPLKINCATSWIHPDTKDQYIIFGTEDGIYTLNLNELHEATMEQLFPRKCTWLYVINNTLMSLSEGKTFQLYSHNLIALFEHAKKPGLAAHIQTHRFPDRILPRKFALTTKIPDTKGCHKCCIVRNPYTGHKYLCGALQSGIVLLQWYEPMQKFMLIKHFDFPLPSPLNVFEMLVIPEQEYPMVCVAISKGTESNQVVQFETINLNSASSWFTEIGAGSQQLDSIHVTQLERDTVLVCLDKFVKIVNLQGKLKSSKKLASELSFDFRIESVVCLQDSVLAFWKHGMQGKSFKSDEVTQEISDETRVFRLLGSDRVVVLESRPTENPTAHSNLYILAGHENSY
To be noted: ATP 1 mM, Ketanserin, Ritanserin 100 μM, RF001 1 mM; for SILAC ratio, M4K5 Lys1 probe-modified peptide: site Lys1; for SILAC ratio, M4K5 Lys2 probe-modified peptide: site Lys2. A digest of the protocol:
as §1

Assay [4] concerns the target T4, STK10 (Serine/threonine-protein kinase 10) (Homo sapiens, UniProt O94804).
T4 construct: Native kinases; endogenous in cells; host or cells: HEK293T soluble proteome
To be noted: site Lys2; ATP 1 mM; Ketanserin, Ritanserin 100 μM; RF001 1 mM. The procedure, abridged:
as §1

T4 sequence (O94804 whole entry): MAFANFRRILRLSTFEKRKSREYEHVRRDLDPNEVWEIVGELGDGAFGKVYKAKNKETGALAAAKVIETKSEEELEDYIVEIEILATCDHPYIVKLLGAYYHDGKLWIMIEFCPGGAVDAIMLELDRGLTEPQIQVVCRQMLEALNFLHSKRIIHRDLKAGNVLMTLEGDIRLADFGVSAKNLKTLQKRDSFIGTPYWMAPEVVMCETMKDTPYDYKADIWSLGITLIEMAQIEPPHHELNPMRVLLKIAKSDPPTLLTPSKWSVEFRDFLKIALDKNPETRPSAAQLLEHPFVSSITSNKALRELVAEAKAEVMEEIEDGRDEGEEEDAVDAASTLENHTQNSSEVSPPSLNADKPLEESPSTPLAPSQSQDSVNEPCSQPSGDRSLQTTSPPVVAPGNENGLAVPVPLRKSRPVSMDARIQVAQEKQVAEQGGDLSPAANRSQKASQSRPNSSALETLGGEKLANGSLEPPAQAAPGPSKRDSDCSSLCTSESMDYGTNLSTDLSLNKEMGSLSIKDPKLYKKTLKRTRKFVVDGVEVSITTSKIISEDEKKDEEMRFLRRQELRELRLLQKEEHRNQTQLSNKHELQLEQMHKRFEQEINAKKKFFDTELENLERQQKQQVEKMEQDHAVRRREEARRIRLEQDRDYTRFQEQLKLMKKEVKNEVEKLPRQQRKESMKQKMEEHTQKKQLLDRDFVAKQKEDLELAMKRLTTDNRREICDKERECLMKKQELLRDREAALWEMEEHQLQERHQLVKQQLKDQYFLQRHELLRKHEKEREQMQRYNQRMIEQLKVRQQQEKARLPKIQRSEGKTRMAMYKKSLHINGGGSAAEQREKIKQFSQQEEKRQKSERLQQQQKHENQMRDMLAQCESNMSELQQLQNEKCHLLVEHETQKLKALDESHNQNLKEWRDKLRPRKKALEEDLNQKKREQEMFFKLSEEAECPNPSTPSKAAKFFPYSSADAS

Regarding `O=C(c1ccc(F)cc1)C1CCN(CCn2c(=O)[nH]c3ccccc3c2=O)CC1` [Ketanserin], in assay [1], the “SILAC ratio, KCC2G probe-modified peptide” value is on record as 1.5. For the same compound, in assay [2], the “SILAC ratio, MP2K4 probe-modified peptide” value was found to be 1.3. For the same compound, in assay [3], the “SILAC ratio, M4K5 Lys1 probe-modified peptide” value worked out at 1.3 and the “SILAC ratio, M4K5 Lys2 probe-modified peptide” value is reported as 1.3. Further, the “SILAC ratio, STK10 probe-modified peptide” value in assay [4] worked out at 1.3.

As to `Fc1ccc(C(=C2CCNCC2)c2ccc(F)cc2)cc1` [RF001, 4-(Bis(4-fluorophenyl)methylene) piperidine], in assay [1], the “SILAC ratio, KCC2G probe-modified peptide” value was 1.6. Moreover, the “SILAC ratio, MP2K4 probe-modified peptide” value in assay [2] is listed as 0.9. For the same compound, in assay [3], the “SILAC ratio, M4K5 Lys1 probe-modified peptide” value is 0.9 and the “SILAC ratio, M4K5 Lys2 probe-modified peptide” value stood at 1.3. Also, the “SILAC ratio, STK10 probe-modified peptide” value in assay [4] is 1.1.

On to `Cc1nc2sccn2c(=O)c1CCN1CCC(=C(c2ccc(F)cc2)c2ccc(F)cc2)CC1` [Ritanserin], for which the “SILAC ratio, KCC2G probe-modified peptide” value in assay [1] came out at 2.7. In addition, in assay [2], the “SILAC ratio, MP2K4 probe-modified peptide” value turned out to be 1.6. In assay [3], the “SILAC ratio, M4K5 Lys1 probe-modified peptide” value is 2.4 and the “SILAC ratio, M4K5 Lys2 probe-modified peptide” value is on record as 1.9. Also, the “SILAC ratio, STK10 probe-modified peptide” value in assay [4] was 1.7.
